Data published in US7157580B2, “Aminopyrimidine and aminopyridine anti-inflammation agents” (Roche Palo Alto LLC, priority 2001, dated 2007).

**Q.** For `Cn1cncc1-c1cc(/C=N/N(CCC(C)(C)O)C(N)=S)nc(NC2CCN(S(C)(=O)=O)CC2)n1` [Compound 96, 2-(1-methanesulfonyl-piperidin-4-ylamino)-6-(1-methyl-1H-imidazol-5-yl)-pyrimidine-4-carbaldehyde 2-(2-hydroxy-2-methyl-but-4-yl)-thiosemicarbazone], which melting point is on record?
**A.** The melting point was 203.6 to 206 °C.
